Assay results from patent publication US9232790B2, “Antimicrobial cleansing compositions” (KIMBERLY-CLARK WORLDWIDE, INC., priority 2011, dated 2016).

Experiments:
Type in all cases: cell-based
E. coli K12 (ATCC 29425) [1] = assay: Impact of CAPB on cationic biocides, 60 second contact test against E. coli K12; conditions: 0.3% active, 60 seconds contact, 0.3 g/L bovine serum albumin; for LOG10 CFU/ml Reduction, w/ CAPB: with CAPB 3.5% w/w active; for LOG10 CFU/ml Reduction, w/o CAPB: without CAPB
Experimental: In this Example, the impact of cocamidopropyl betaine (CAPB) on the antimicrobial activity of cationic biocides against E. coli K12 (ATCC 29425) was analyzed.
Specifically, E. coli K12 was contacted for 60 seconds in a 0.3 g/L solution of bovine serum albumin mixed with a solution containing a cationic biocide, with or without CAPB (3.5% w/w active).

[2] = tested on: P. aeruginosa (ATCC 15442); assay: Impact of CAPB on cationic biocides, 60 second contact test against P. aeruginosa; conditions: 0.3% active, 60 seconds contact, 0.3 g/L bovine serum albumin; for LOG10 CFU/ml Reduction, w/ CAPB: with CAPB 3.5% w/w active; for LOG10 CFU/ml Reduction, w/o CAPB: without CAPB
Experimental: In this Example, the impact of cocamidopropyl betaine (CAPB) on the antimicrobial activity of cationic biocides against P. aeruginosa (ATCC 15442) was analyzed.
Specifically, P. aeruginosa was contacted for 60 seconds in a 0.3 g/L solution of bovine serum albumin and mixed with a solution containing a cationic biocide, with or without CAPB (3.5% w/w active).

S. aureus (ATCC 6538) = assay: Impact of CAPB on cationic biocides, 60 second contact test against S. aureus; conditions: 0.3% active, 60 seconds contact, 0.3 g/L bovine serum albumin; for LOG10 CFU/ml Reduction, w/ CAPB: with CAPB 3.5% w/w active; for LOG10 CFU/ml Reduction, w/o CAPB: without CAPB
Experimental: In this Example, the impact of cocamidopropyl betaine (CAPB) on the antimicrobial activity of cationic biocides against S. aureus (ATCC 6538) was analyzed.
Specifically, S. aureus was contacted for 60 seconds in a 0.3 g/L solution of bovine serum albumin mixed with a solution containing a cationic biocide, with or without CAPB (3.5% w/w active).

E. faecalis (ATCC 29212) = assay: Impact of CAPB on cationic biocides, 60 second contact test against E. faecalis; conditions: 0.3% active, 60 seconds contact, 0.3 g/L bovine serum albumin; for LOG10 CFU/ml Reduction, w/ CAPB: with CAPB 3.5% w/w active; for LOG10 CFU/ml Reduction, w/o CAPB: without CAPB
Experimental: In this Example, the impact of cocamidopropyl betaine (CAPB) on the antimicrobial activity of cationic biocides against E. faecalis (ATCC 29212) was analyzed.
Specifically, E. faecalis was contacted for 60 seconds in a 0.3 g/L solution of bovine serum albumin mixed with a solution containing a cationic biocide, with or without CAPB (3.5% w/w active).

E. coli K12 (ATCC 29425) [3] = assay: Impact of other betaine-based surfactants on benzalkonium chloride efficacy against E. coli K12; conditions: 60 seconds contact, 0.3 g/L bovine serum albumin; for LOG10 CFU/ml Reduction, 0.3% benzalkonium chloride + 3.5% surfactant: 0.3% benzalkonium chloride combined with 3.5% of the named betaine-based surfactant
Experimental: In this Example, the impact of other betaine-based surfactants on the antimicrobial activity of benzalkonium chloride against E. coli K12 (ATCC 29425) was analyzed.
Specifically, E. coli K12 was contacted for 60 seconds in a 0.3 g/L solution of bovine serum albumin mixed with a solution containing benzalkonium chloride, with or without a betaine-based surfactant (3.5% w/w active).

Row | Molecule | LOG10 CFU/ml Reduction, w/ CAPB (E. coli K12 (ATCC 29425) [1]) [LOG10 CFU/ml] | LOG10 CFU/ml Reduction, w/o CAPB (E. coli K12 (ATCC 29425) [1]) [LOG10 CFU/ml] | LOG10 CFU/ml Reduction, w/ CAPB [2] [LOG10 CFU/ml] | LOG10 CFU/ml Reduction, w/o CAPB [2] [LOG10 CFU/ml] | LOG10 CFU/ml Reduction, w/ CAPB (S. aureus (ATCC 6538)) [LOG10 CFU/ml] | LOG10 CFU/ml Reduction, w/o CAPB (S. aureus (ATCC 6538)) [LOG10 CFU/ml] | LOG10 CFU/ml Reduction, w/ CAPB (E. faecalis (ATCC 29212)) [LOG10 CFU/ml] | LOG10 CFU/ml Reduction, w/o CAPB (E. faecalis (ATCC 29212)) [LOG10 CFU/ml] | LOG10 CFU/ml Reduction, w/ CAPB (S. aureus (ATCC 6538); listed as didecyldimonium chloride) [LOG10 CFU/ml] | LOG10 CFU/ml Reduction, 0.3% benzalkonium chloride + 3.5% surfactant (E. coli K12 (ATCC 29425) [3]) [LOG10 CFU/ml] | LOG10 CFU/ml Reduction, 0.3% benzalkonium chloride (E. coli K12 (ATCC 29425) [3]; 0.3% benzalkonium chloride alone) [LOG10 CFU/ml]
1 | CC(C)(C)CC(C)(C)c1ccc(OCCOCC[N+](C)(C)Cc2ccccc2)cc1 [Benzethonium chloride] | <3.1 | >5.5 | <3.3 | >5.7 | <2.4 | >4.9 | <3.3 | 4.8 |  |  | 
2 | N=C(NCCCCCCNC(=N)NC(=N)Nc1ccc(Cl)cc1)NC(=N)Nc1ccc(Cl)cc1.O=C(O)[C@H](O)[C@@H](O)[C@H](O)[C@H](O)CO.O=C(O)[C@H](O)[C@@H](O)[C@H](O)[C@H](O)CO [Chlorhexidine gluconate] | <3.1 | 5.5 | <3.3 | >5.7 | <2.4 | 3.2 | <3.3 | <3.3 |  |  | 
3 | CCCCCCCCCC[N+](C)(C)CCCCCCCCCC.[Cl-] [Didecyldimonium chloride] | <3.1 | 4.5 | <3.3 | >5.7 | 4 | >4.9 | <3.3 | >5.7 | 4.0 |  | 
4 | CCCCCCCCCCCC[N+](C)(C)CC(=O)[O-] [Lauryl betaine] |  |  |  |  |  |  |  |  |  | <3.1 | 
5 | Benzalkonium chloride | <3.1 | >5.5 | <3.3 | >5.7 | <2.4 | >4.9 | <3.3 | >5.7 |  |  | >5.5
6 | Coco-betaine |  |  |  |  |  |  |  |  |  | <3.1 | 
7 | Lauramidopropyl betaine |  |  |  |  |  |  |  |  |  | <3.0 | 
8 | Meadowfoamamidopropyl betaine |  |  |  |  |  |  |  |  |  | <3.0 | 
